Laboratory results published in patent publication US10729643B2, “Methods for administration and methods for treating cardiovascular diseases with resiniferatoxin” (priority 2013, dated 2020).
Like-named read-outs stand apart in the source and are kept apart here.

Legend:
[1] = tested on: cardiac sympathetic afferent input; details: anesthetized CHF dogs; acute epicardial application; cited from earlier work
[2] = tested on: cardiac sympathetic afferent input; details: anesthetized CHF rats; acute epicardial application; cited from earlier work
[3] = tested on: infarcted heart / CSAR activation; assay: Cardiac plasma extravasation (Evans Blue area); format: in vivo, rat; details: i.v.
Description: This example illustrates local anti-inflammatory effects of RTX in the infarcted heart. Myocardial ischemia causes the production and release of several metabolites including bradykinin, prostaglandins and protons that stimulate cardiac sympathetic afferent nerve endings leading to increases in BP, HR and sympathetic nerve activity. As cardiac TRPV1-expressing sympathetic afferents also subserve a “dual sensory-efferent” function and release pro-inflammatory neuropeptides, we hypothesized that plasma extravasation and cardiac neuroinflammation follows myocardial ischemia. […] Inflammation in the infarct area may be due to tissue death whereas in peri-infarct and remote areas may be due to cardiac sympathetic afferent mediated neuroinflammation. This may explain why RTX prevented cardiac inflammation in non-infarct areas to a greater extent than in the infarct area.

| Molecule | baseline MAP, HR and RSNA [1] | baseline MAP, HR and RSNA [2] | cardiac plasma extravasation after MI (Evans Blue area) ([3]; Spantide II 0.3 mg/kg, 2 min prior to injection of Evans Blue) | plasma extravasation following CSAR activation by epicardial capsaicin or bradykinin ([3]; acute pretreatment with Spantide II, 0.3 mg/kg) |
| --- | --- | --- | --- | --- |
| CCN(CC)CC(=O)Nc1c(C)cccc1C [lidocaine] | decreased | decreased | – | – |
| Spantide II | – | – | attenuated | largely be abolished |
